Results reported in PubChem BioAssay AID1963839 (Molecular Pharmacology Branch, DTP, NCI, 2024).

System: 817829-284-R-J1-PDC complex spheroid viability
Assay: Anticancer human tumor 817829-284-R-J1-PDC patient-derived colon adenocarcinoma cell line growth inhibition [POLQ]
Settings: for IC50: curve of first compound; for viability, T/C: stronger effect = lower value; active = viability on the fitted dose curve at most 10% of control; inactive = the rest
Summary of the method: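 Growth inhibition in 3D: complex spheroids (tumor PDC, HUVEC, MSC) treated with POLQ inhibitor combinations; where Cmax unknown, highest tested concentration 10 microM, except SN-38 at 1 microM.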

[1] = second compound 0.0316 µM, first compound 0.0316 µM
[2] = second compound 0.0316 µM, first compound 0.1 µM
[3] = second compound 0.0316 µM, first compound 0.316 µM
[4] = second compound 0.0316 µM, first compound 1 µM
[5] = second compound 0.0316 µM, first compound 3.16 µM
[6] = second compound 0.0316 µM, first compound 10 µM
[7] = second compound 0.1 µM, first compound 0.0316 µM
[8] = second compound 0.1 µM, first compound 0.1 µM
[9] = second compound 0.1 µM, first compound 0.316 µM
[10] = second compound 0.1 µM, first compound 1 µM
[11] = second compound 0.1 µM, first compound 3.16 µM
[12] = second compound 0.1 µM, first compound 10 µM
[13] = second compound 0.316 µM, first compound 0.0316 µM
[14] = second compound 0.316 µM, first compound 0.1 µM
[15] = second compound 0.316 µM, first compound 0.316 µM
[16] = second compound 0.316 µM, first compound 1 µM
[17] = second compound 0.316 µM, first compound 3.16 µM
[18] = second compound 0.316 µM, first compound 10 µM
[19] = second compound 1 µM, first compound 0.0316 µM
[20] = second compound 1 µM, first compound 0.1 µM
[21] = second compound 1 µM, first compound 0.316 µM
[22] = second compound 1 µM, first compound 1 µM
[23] = second compound 1 µM, first compound 3.16 µM
[24] = second compound 1 µM, first compound 10 µM
[25] = second compound 3.16 µM, first compound 0.0316 µM
[26] = second compound 3.16 µM, first compound 0.1 µM
[27] = second compound 3.16 µM, first compound 0.316 µM
[28] = second compound 3.16 µM, first compound 1 µM
[29] = second compound 3.16 µM, first compound 3.16 µM
[30] = second compound 3.16 µM, first compound 10 µM
[31] = second compound 10 µM, first compound 0.0316 µM
[32] = second compound 10 µM, first compound 0.1 µM
[33] = second compound 10 µM, first compound 0.316 µM
[34] = second compound 10 µM, first compound 1 µM
[35] = second compound 10 µM, first compound 3.16 µM
[36] = second compound 10 µM, first compound 10 µM
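Also: spheroids exposed to compounds for 7 days.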
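For viability, T/C in this document: 100% = DMSO vehicle-treated spheroids.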

CCCS(=O)(=O)Nc1ccc(F)c(C(=O)c2c[nH]c3ncc(-c4ccc(Cl)cc4)cc23)c1F + COC1C(OC(N)=O)C(O)C(Oc2ccc3c(O)c(NC(=O)c4ccc(O)c(CC=C(C)C)c4)c(=O)oc3c2C)OC1(C)C
3520 nM: IC50 (second compound 10 µM)
3340 nM: IC50 (second compound 0.1 µM)
2410 nM: IC50 (second compound 0.0316 µM)
inactive: viability, T/C [1] 76% | viability, T/C [2] 77% | viability, T/C [3] 73.6% | viability, T/C [4] 73.4% | viability, T/C [5] 42.9% | viability, T/C [6] 16.6% | viability, T/C [7] 76.6% | viability, T/C [8] 74.8% | viability, T/C [9] 43.4% | viability, T/C [10] 86.7% | viability, T/C [11] 51.9% | viability, T/C [12] 12.8% | viability, T/C [13] 48.3% | viability, T/C [14] 71.4% | viability, T/C [15] 58.7% | viability, T/C [16] 71.2% | viability, T/C [17] 68.5% | viability, T/C [18] 15.9% | viability, T/C [19] 86.4% | viability, T/C [20] 80.6% | viability, T/C [21] 48.5% | viability, T/C [22] 74.6% | viability, T/C [23] 51.6% | viability, T/C [24] 13% | viability, T/C [25] 76.3% | viability, T/C [26] 76.8% | viability, T/C [27] 89.3% | viability, T/C [28] 79.1% | viability, T/C [29] 76.3% | viability, T/C [30] 16.1% | viability, T/C [31] 82% | viability, T/C [32] 86.4% | viability, T/C [33] 62.1% | viability, T/C [34] 86.4% | viability, T/C [35] 53.8% | viability, T/C [36] 13%
5230 nM: IC50 (second compound 3.16 µM)
4390 nM: IC50 (second compound 0.316 µM)
2900 nM: IC50 (second compound 1 µM)

COc1ccc([C@@H](O)c2cc(-c3ncnc4cc(N5CCOCC5)ccc34)c(F)cc2Cl)nn1 + COC1C(OC(N)=O)C(O)C(Oc2ccc3c(O)c(NC(=O)c4ccc(O)c(CC=C(C)C)c4)c(=O)oc3c2C)OC1(C)C
497 nM: IC50 (second compound 3.16 µM)
797 nM: IC50 (second compound 0.316 µM)
678 nM: IC50 (second compound 0.0316 µM)
1010 nM: IC50 (second compound 1 µM)
inactive: viability, T/C [1] 111% | viability, T/C [2] 61.9% | viability, T/C [3] 76.9% | viability, T/C [4] 44.5% | viability, T/C [5] 22.8% | viability, T/C [6] 11.9% | viability, T/C [7] 117% | viability, T/C [8] 79.6% | viability, T/C [9] 68.8% | viability, T/C [10] 55% | viability, T/C [11] 26.6% | viability, T/C [12] 18.5% | viability, T/C [13] 98.7% | viability, T/C [14] 86% | viability, T/C [15] 58.4% | viability, T/C [16] 53.9% | viability, T/C [17] 25.5% | viability, T/C [18] 18.9% | viability, T/C [19] 102% | viability, T/C [20] 88.8% | viability, T/C [21] 89.4% | viability, T/C [22] 49.2% | viability, T/C [23] 25.9% | viability, T/C [24] 18.9% | viability, T/C [25] 97.1% | viability, T/C [26] 86% | viability, T/C [27] 59.6% | viability, T/C [28] 34.2% | viability, T/C [29] 22.3% | viability, T/C [30] 16% | viability, T/C [31] 135% | viability, T/C [32] 62.2% | viability, T/C [33] 80% | viability, T/C [34] 43.9% | viability, T/C [35] 27.4% | viability, T/C [36] 16.2%
579 nM: IC50 (second compound 10 µM)
1040 nM: IC50 (second compound 0.1 µM)

COc1cccc(OCCCN)c1-c1cc(Nc2cnc(C#N)cn2)n[nH]1 + COC1C(OC(N)=O)C(O)C(Oc2ccc3c(O)c(NC(=O)c4ccc(O)c(CC=C(C)C)c4)c(=O)oc3c2C)OC1(C)C
< 3.16 nM: IC50 (second compound 0.0316 µM) | IC50 (second compound 0.1 µM) | IC50 (second compound 0.316 µM) | IC50 (second compound 1 µM) | IC50 (second compound 3.16 µM) | IC50 (second compound 10 µM)
inactive: viability, T/C (second compound 0.0316 µM, first compound 0.00316 µM) 29.9% | viability, T/C (second compound 0.1 µM, first compound 0.00316 µM) 26% | viability, T/C (second compound 0.1 µM, first compound 0.01 µM) 11.2% | viability, T/C (second compound 0.316 µM, first compound 0.00316 µM) 29.5% | viability, T/C (second compound 1 µM, first compound 0.00316 µM) 39.1% | viability, T/C (second compound 3.16 µM, first compound 0.00316 µM) 44.4% | viability, T/C (second compound 10 µM, first compound 0.00316 µM) 26.2%
active: viability, T/C (second compound 0.0316 µM, first compound 0.01 µM) 8.3% | viability, T/C [1] 5.67% | viability, T/C [2] 5.85% | viability, T/C [3] 4.68% | viability, T/C [4] 3.39% | viability, T/C [7] 6.67% | viability, T/C [8] 5.76% | viability, T/C [9] 5.35% | viability, T/C [10] 3.07% | viability, T/C (second compound 0.316 µM, first compound 0.01 µM) 8.79% | viability, T/C [13] 6.28% | viability, T/C [14] 5.55% | viability, T/C [15] 4.77% | viability, T/C [16] 3.42% | viability, T/C (second compound 1 µM, first compound 0.01 µM) 8.54% | viability, T/C [19] 6.62% | viability, T/C [20] 4.99% | viability, T/C [21] 4.97% | viability, T/C [22] 3.65% | viability, T/C (second compound 3.16 µM, first compound 0.01 µM) 8.05% | viability, T/C [25] 5.78% | viability, T/C [26] 4.98% | viability, T/C [27] 4.52% | viability, T/C [28] 4.11% | viability, T/C (second compound 10 µM, first compound 0.01 µM) 8.47% | viability, T/C [31] 6.63% | viability, T/C [32] 5.63% | viability, T/C [33] 4.76% | viability, T/C [34] 4.08%

O=C(c1cc(Cc2n[nH]c(=O)c3ccccc23)ccc1F)N1CCN(C(=O)C2CC2)CC1 + COC1C(OC(N)=O)C(O)C(Oc2ccc3c(O)c(NC(=O)c4ccc(O)c(CC=C(C)C)c4)c(=O)oc3c2C)OC1(C)C
4580 nM: IC50 (second compound 0.1 µM)
inactive: viability, T/C [1] 71.5% | viability, T/C [2] 109% | viability, T/C [3] 88.3% | viability, T/C [4] 61.2% | viability, T/C [5] 49.8% | viability, T/C [6] 33.7% | viability, T/C [7] 94.9% | viability, T/C [8] 86.5% | viability, T/C [9] 83.7% | viability, T/C [10] 68.2% | viability, T/C [11] 68.7% | viability, T/C [12] 25.8% | viability, T/C [13] 105% | viability, T/C [14] 98.4% | viability, T/C [15] 85.7% | viability, T/C [16] 90.1% | viability, T/C [17] 50% | viability, T/C [18] 32.2% | viability, T/C [19] 88.3% | viability, T/C [20] 99.9% | viability, T/C [21] 81.4% | viability, T/C [22] 75.7% | viability, T/C [23] 61.2% | viability, T/C [24] 24.3% | viability, T/C [25] 114% | viability, T/C [26] 92.5% | viability, T/C [27] 75.2% | viability, T/C [28] 70.3% | viability, T/C [29] 63.2% | viability, T/C [30] 30.2% | viability, T/C [31] 90.5% | viability, T/C [32] 95.3% | viability, T/C [33] 68.8% | viability, T/C [34] 102% | viability, T/C [35] 60.7% | viability, T/C [36] 25.7%
3830 nM: IC50 (second compound 3.16 µM)
4490 nM: IC50 (second compound 10 µM)
4290 nM: IC50 (second compound 1 µM)
3280 nM: IC50 (second compound 0.316 µM)
2180 nM: IC50 (second compound 0.0316 µM)
